Results from ChEMBL document CHEMBL1150237, “Synthesis of indoleamine 2,3-dioxygenase inhibitory analogues of the sponge alkaloid exiguamine A” (J Med Chem, 2008).
Activity calls are given as the source filed them. No cut-off for these calls is given here.

Experiments:
[1] = biological target: T1, Indoleamine 2,3-dioxygenase 1 (Homo sapiens, UniProt P14902); test: Inhibition of human recombinant indoleamine 2,3-dioxygenase
Target sequence in this assay (P14902 whole entry): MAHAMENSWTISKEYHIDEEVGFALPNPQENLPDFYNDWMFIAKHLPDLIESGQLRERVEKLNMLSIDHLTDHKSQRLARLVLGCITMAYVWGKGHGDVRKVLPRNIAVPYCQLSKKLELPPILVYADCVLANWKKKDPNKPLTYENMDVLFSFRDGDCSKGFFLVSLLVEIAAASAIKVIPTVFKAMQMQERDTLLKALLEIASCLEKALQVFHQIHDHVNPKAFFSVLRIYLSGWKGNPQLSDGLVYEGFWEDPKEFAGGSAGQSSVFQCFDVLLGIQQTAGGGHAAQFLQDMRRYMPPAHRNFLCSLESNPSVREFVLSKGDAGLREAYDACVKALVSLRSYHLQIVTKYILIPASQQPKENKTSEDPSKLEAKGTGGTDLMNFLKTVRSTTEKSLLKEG

[2] = biological target: T1, Indoleamine 2,3-dioxygenase 1; test: Inhibition of human recombinant indoleamine 2,3-dioxygenase at =< 500000 nM
Target sequence in this assay (P14902 whole entry, looked up): as the sequence (P14902 whole entry) above

Structure (SMILES) | Ki [1] [nM] | Activity [2]
O=C1C=CC(=O)c2[nH]ccc21 | 190 | –
O=C(NCCc1c[nH]c2c1C(=O)C=CC2=O)OCc1ccccc1 | 1490 | –
NCCc1c[nH]c2c1C(=O)c1c(c(-c3ccccc3)c3ccccc3c1-c1ccccc1)C2=O | – | inactive
Oc1cccc2[nH]ccc12 | – | inactive
